For one assay, the system named is late watergrass. As to the kind of experiment: Test Example 1: herbicidal activity, application before weed generation under submerged conditions (Table 16, symbol A). The class given is in vivo, late watergrass (Echinochloa oryzicola). The source says: (§1) [Test Example 1] Herbicidal Activity Test by Application before Weed Generation under Submerged Conditions After alluvial soil was placed into 1/10000 are of Wagner pot, water was poured and mixed to form a submerged condition having a water depth of 4 cm. Seeds of late watergrass, Japanese bulrush, and oval-leafed pondweed were sowed in a mixed manner in the aforementioned pot, and then 2.5 leaf stage rice plant seedlings were transplanted thereto. On the day of sowing seeds, the emulsion agent of the compound of the present invention prepared according to Formulation Example 2 was diluted with water so as to achieve a predetermined herbicide amount, and the diluted emulsion agent was applied to the surface of the water. The pot was placed in a greenhouse at 25° C. to 30° C. for growth of the plants. Three weeks after the herbicide application, the effect of the herbicide on each plant was evaluated according to the following criteria. Evaluation Criteria 5: Herbicidal rate of 90% or more (almost completely withered) 4: Herbicidal rate of 70% or more and less than 90% 3: Herbicidal rate of 40% or more and less than 70% 2: Herbicidal rate of 20% or more and less than 40% 1: Herbicidal rate of 5% or more and less than 20% 0: Herbicidal rate of 5% or less (almost no effect)

Another assay concerns Japanese bulrush. As to the kind of experiment: Test Example 1: herbicidal activity, application before weed generation under submerged conditions (Table 16, symbol B). The class given is in vivo, Japanese bulrush (Schoenoplectus juncoides).
Description: as §1

Another assay relates to oval-leafed pondweed. Description: Test Example 1: herbicidal activity, application before weed generation under submerged conditions (Table 16, symbol C). The class given is in vivo, oval-leafed pondweed (Monochoria vaginalis).
Description: as §1

In the next assay the test system is barnyard grass. Description: Test Example 3: herbicidal effect by foliage application, Wagner pot (Table 18, symbol H). The class given is in vivo, barnyard grass (Echinochloa crus-galli). Summed up:
(§2)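 Plants were sown in alluvial soil held under 0.1–0.5 cm standing water and grown 14 days in a greenhouse at 25–30 °C. An emulsifiable formulation, water-diluted to the set dose, was then sprayed onto the foliage, and effects were scored three weeks later using previously defined criteria.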

The next assay relates to Chinese sprangletop. Description: Test Example 3: herbicidal effect by foliage application, Wagner pot (Table 18, symbol D). The class given is in vivo, chinese sprangletop (Leptochloa chinensis). Summed up: as §2
The test system of another assay is rice flat sedge. As to the kind of experiment: Test Example 3: herbicidal effect by foliage application, Wagner pot (Table 18, symbol E). The class given is in vivo, rice flat sedge (Cyperus iria). Summed up:
as §2

Setting [1] is: amount of applied herbicide 224 g/ha.
[2] abbreviates: amount of applied herbicide 320 g/ha.

The structures appear in SMILES notation.

For `Cc1nn(C)c(=O)c(-c2c(-c3cccc(OCC(F)(F)F)c3)sc3ccc(F)cc23)c1O` [2-238], the “Herbicidal effect on A: late watergrass (grade 0-5)” value in the assay with late watergrass (224 g/ha applied herbicide) was 3 (Herbicidal rate of 40% or more and less than 70%). The “Herbicidal effect on B: Japanese bulrush (grade 0-5)” value in the assay with Japanese bulrush (224 g/ha applied herbicide) is 0 (Herbicidal rate of 5% or less (almost no effect)). Also, the “Herbicidal effect on C: oval-leafed pondweed (grade 0-5)” value in the assay on oval-leafed pondweed (224 g/ha applied herbicide) is recorded as 0 (Herbicidal rate of 5% or less (almost no effect)). Besides, the “herbicidal effect on H: barnyard grass” value in the assay with barnyard grass (setting [1]) was 3 (Herbicidal rate of 40% or more and less than 70%). The “herbicidal effect on D: Chinese sprangletop” value in the assay with Chinese sprangletop (setting [1]) was 2 (Herbicidal rate of 20% or more and less than 40%). Further, in the assay on rice flat sedge (setting [1]), the “herbicidal effect on E: rice flat sedge” value was 3 (Herbicidal rate of 40% or more and less than 70%).
On to `Cc1nn(C)c(=O)c(-c2c(-c3cc(C(F)(F)F)cc(C(F)(F)F)c3)sc3ccc(F)cc23)c1O` [2-358], for which the “Herbicidal effect on A: late watergrass (grade 0-5)” value with late watergrass (320 g/ha applied herbicide) was 3 (Herbicidal rate of 40% or more and less than 70%). In addition, the “Herbicidal effect on B: Japanese bulrush (grade 0-5)” value with Japanese bulrush (320 g/ha applied herbicide) was 0 (Herbicidal rate of 5% or less (almost no effect)). In addition, the “Herbicidal effect on C: oval-leafed pondweed (grade 0-5)” value in the assay with oval-leafed pondweed (320 g/ha applied herbicide) is listed as 0 (Herbicidal rate of 5% or less (almost no effect)). The “herbicidal effect on H: barnyard grass” value with barnyard grass (setting [2]) is 3 (Herbicidal rate of 40% or more and less than 70%). Moreover, the “herbicidal effect on D: Chinese sprangletop” value in the assay on Chinese sprangletop (setting [2]) was 1 (Herbicidal rate of 5% or more and less than 20%). In addition, in the assay on rice flat sedge (setting [2]), the “herbicidal effect on E: rice flat sedge” value was 3 (Herbicidal rate of 40% or more and less than 70%).

The values are drawn from patent publication US20230085307A1, “PYRIDAZINONE COMPOUND AND HERBICIDE” (NISSAN CHEMICAL CORPORATION, priority 2019, published 2023).
